{"source": "patent US20260069596A1", "about": "(Cardiff Oncology, Inc., priority 2024, published 2026)", "key": {"[1]": {"conditions": "cited from earlier work"}, "[2]": {"test_system": "advanced/metastatic solid tumors", "conditions": "single agent; cited from earlier work"}, "CYP1A2": {"target": "T1, CYP1A2 (Homo sapiens, UniProt P05177)", "T1 construct": "was investigated using human liver microsomes; from tissue; host or cells: human liver microsomes", "T1 sequence (P05177 1-516)": "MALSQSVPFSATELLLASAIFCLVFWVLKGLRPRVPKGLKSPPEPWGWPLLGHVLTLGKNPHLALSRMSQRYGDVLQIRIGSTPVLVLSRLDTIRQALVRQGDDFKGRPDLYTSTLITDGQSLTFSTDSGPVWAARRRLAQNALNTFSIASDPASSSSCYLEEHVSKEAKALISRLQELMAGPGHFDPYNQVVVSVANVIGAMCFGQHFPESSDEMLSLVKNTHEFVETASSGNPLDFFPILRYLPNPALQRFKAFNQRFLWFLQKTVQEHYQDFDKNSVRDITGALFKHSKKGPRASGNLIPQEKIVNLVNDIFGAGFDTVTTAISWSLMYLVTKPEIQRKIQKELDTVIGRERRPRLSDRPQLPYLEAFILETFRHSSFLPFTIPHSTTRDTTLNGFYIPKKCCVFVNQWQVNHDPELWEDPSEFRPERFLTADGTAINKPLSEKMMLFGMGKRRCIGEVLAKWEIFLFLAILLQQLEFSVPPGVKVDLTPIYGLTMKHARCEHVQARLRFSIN", "conditions": "human liver microsomes; cited from earlier work"}, "[3]": {"test_system": "RAS^WT colorectal cancer patient derived xenograft (PDX) models", "test": "Example 2: antitumor activity in RAS^WT colorectal cancer PDX models", "assay_type": "in vivo, mice", "experimental": "Tumor volumes (TV) were measured twice a week, and % tumor volume change (TVC) from baseline was calculated as follows: (TVi/TV0−1)×100. Tumor stasis defined as TVC between 0 and 20%, and tumor regression as TVC less than 0% at last measurement. Results are presented as mean±SEM."}}, "note": "Entries after “also recorded” stand apart in the source; their conditions may differ.", "data": [{"compound": "CN1CCN(c2ccc(OC(F)(F)F)c(Nc3ncc4c(n3)-c3c(c(C(N)=O)nn3CCO)CC4)c2)CC1", "note": "[Onvansertib, 1-(2-hydroxyethyl)-8-{[5-(4-methylpiperazin-1-yl)-2-(trifluoromethoxy)phenyl]amino}-4,5-dihydro-1H-pyrazolo[4,3-h]quinazoline-3-carboxamide]", "values": [{"measurement": "DLTs", "setting": "[1]; doses of 6, 12, and 24 mg/m^2/day, oral, 5 consecutive days every 3 weeks", "result": "No DLTs"}, {"measurement": "primary dose-limiting toxicities / primary toxicities", "setting": "[1]; phase I, patients with advanced/metastatic solid tumors", "result": "neutropenia and thrombocytopenia; also recorded: thrombocytopenia and neutropenia"}, {"measurement": "recovery time of hematologic toxicities", "setting": "[1]; reversible toxicities", "result": "≤ 3", "unit": "weeks"}, {"measurement": "best observed treatment response", "setting": "[2]", "result": "stable disease"}, {"measurement": "inhibitory effect against CYP1A2", "setting": "CYP1A2", "result": "No significant inhibitory effects"}, {"measurement": "models with tumor stasis or regression", "setting": "[3]; 7 PDXs sensitive to cetuximab", "result": "five"}, {"measurement": "models with potent antitumor activity", "setting": "[3]; PDX models sensitive to cetuximab, 71%", "result": "5/7"}, {"measurement": "models with tumor regression (TVC less than 0%)", "setting": "[3]; all 20 models", "result": 11, "unit": "models"}, {"measurement": "models with tumor stasis (TVC between 0 and 20%)", "setting": "[3]; all 20 models", "result": 3, "unit": "models"}]}]}
